Measured values from patent publication US20220401367A1, “REHYDRATABLE, MORPHOLOGICALLY DIVERSE NANOCARRIER POWDERS” (Northwestern University, priority 2021, published 2022).

Key:
RAW 264.7 macrophages [1] = assay: Flow cytometric cytotoxicity (Zombie Aqua viability dye) in macrophages; type: cell-based; conditions: mouse, 70 %
Method: (§1) Macrophage cell culture. RAW 264.7 macrophages were purchased from ATCC and were cultured in T75 polystyrene tissue culture flasks (BD Biosciences) in Dulbecco's Modified Eagle Medium supplemented with 10% fetal bovine serum (FBS) (Gibco) and 1% penicillin/streptomycin antibiotics (Life Technologies). Cells were passaged by mechanical scraping after reaching 70-80% confluency.
(§2) Flow cytometric analysis of nanocarrier uptake and cytotoxicity. For each specified cell line, a total of 100,000 cells were seeded per well in 24-well polystyrene plates (Falcon). Cells were allowed to adhere overnight at 37° C., 4.0% CO2. For uptake studies involving endocytosis inhibitor pre-treatments, cells were incubated with either PBS (i.e., no inhibitor), cytochalasin D (CytD, 50 μM) phagocytosis inhibitor, or chlorpromazine (CPZ, 50 μM) clathrin-mediated endocytosis inhibitor prior to administering nanocarriers. Inhibitor concentrations were chosen based on published reports^36,53. Cells were treated with nanocarriers at the specified polymer concentration for 2 h. […] A total of 10,000 single cell events were recorded per sample and the resulting data were analyzed using the Cytobank analysis suite^54. The median fluorescence intensity (MFI) was normalized by subtracting the average MFI from untreated cells and was used to quantify the cellular uptake of nanocarriers.

RAW 264.7 macrophages [2] = assay: Flow cytometric analysis of nanocarrier uptake by macrophages (MFI), with or without endocytosis inhibitors; type: cell-based; conditions: 50 μM CytD or 50 μM CPZ pre-treatment; nanocarriers at 1.0 mg/mL polymer
Method: as §1, §2

Row | SMILES | macrophage viability (RAW 264.7 macrophages [1]) | nanocarrier uptake after pre-treatment with endocytosis inhibitors (in words) (RAW 264.7 macrophages [2])
1 | CCO [70% ethanol, ethanol] | below 30% | –
2 | CN(C)CCCN1c2ccccc2Sc2ccc(Cl)cc21 [chlorpromazine] | – | decreased uptake of all structures
3 | C=C1[C@@H](C)[C@H]2[C@H](Cc3ccccc3)NC(=O)[C@]23[C@H](OC(C)=O)/C=C/[C@@](C)(O)C(=O)[C@@H](C)C/C=C/[C@H]3[C@@H]1O [cytochalasin D] | – | decreased uptake of all structures
